{"source": "paper PMC11392399", "about": "“The final walk with preptin” (PLOS ONE, 2024)", "key": {"[1]": {"system": "IR-A in IM-9 lymphocytes", "assay": "Competitive binding assay for IR-A with [125I]-monoiodotyrosyl-TyrA14-insulin", "set-up": "species or system human", "conditions": "tracer 125I-insulin, only at the concentrations > 10^-6M, n ≥ 3", "excerpt": "(§1) We also tested whether non-labeled preptins can bind to any of receptors for IGF2 (i.e. IR, IGF1R and IGF2R) in competitive binding assays, employing ^125I-labeled human insulin, IGF1 or IGF2. To determine binding to the IGF1R, we used mouse fibroblasts transfected with human IGF1R and with deleted mouse IGF1R (R+39 cells), according to Hexnerova et al.. We used non-transfected 3T3 fibroblasts to determine binding to IGF2R, because these cells contain essentially only IGF2R [5] and we used human IM-9 lymphocytes to determine affinity for IR-A [31].\n(§2) Binding affinities of ligands for IGF1R were determined with [^125I]-Iodotyrosyl-IGF1 (2,614 Ci/mmol) prepared in the IOCB radioisotope laboratory by a procedure described in Kertisova et al.. Binding affinities for IR-A were determined with [^125I]-monoiodotyrosyl-TyrA14-insulin (2,200 Ci/mmol), prepared as described by Asai et al.. […]\n(§3) The dissociation constant (Kd) values were determined with GraphPad Prism 8, using a nonlinear regression method, a one-site fitting program and considering the potential depletion of free ligand. […] Relative binding affinities were calculated as (Kd of the native hormone/Kd of analog) × 100 (in %). The relative binding affinity S.D. values of analogs were calculated as S.D. = Kd of the native hormone/Kd of peptide ×100 × √[(S.D. native/Kd native)^2 + (S.D. analog/Kd analog)^2]."}, "[2]": {"system": "intracellular calcium in U-2 OS osteoblasts", "assay": "Changes in intracellular calcium, U-2 OS osteoblasts", "type": "cell-based, human", "conditions": "U-2 OS cells; 10^−4 M; Fluo-8 fluorescence, (Fmax−F0)/F0; one-way ANOVA", "protocol": "(§4) The day before the experiment, U-2 OS, MC3T3-E1, MIN6 and cAMP-HEK cells were seeded 6 000 (for osteoblastic cell lines U-2 OS, MC3T3-E1), 10 000 (for cAMP-HEK cells) or 30 000 (MIN6) cells per well in a black 384-well format micro plate with transparent bottom (Cat.#: 142761, Nunc, Thermo Fisher Scientific, USA). On the next day, the cultivation media was exchanged for assay buffer, consisting of HBSS (Cat.#: H6648-500ML, Sigma-Aldrich, Merck, Germany), 20 mM HEPES (Cat.#: L0180-100, Biowest, France), 2.5 mM Probenecid (Cat.#: P8761, Sigma-Aldrich, Merck, Germany), adjusted for pH 7.4 and supplemented with 4.77 μM CalciFluor™ Fluo-8, AM (Cat.#: 1345980-40-6, Santa Cruz Biotechnology, USA). After 45 min incubation with assay buffer in 37°C and 5% CO2, the cells were incubated at RT in a dark place for another 15 minutes. After this time, preptin and its analogs were added by the Agilent Bravo Automated Liquid Handling Platform (Agilent Technologies, USA). The kinetics were measured by the Spark® multimode reader from Tecan (Tecan Group Ltd., Switzerland) for 10 min (approximately 45 cycles, excitation 485 nm, emission 535 nm, band width 10 nm). Before each kinetics, the background fluorescence (F0) was measured and the result was calculated as (Fmax−F0)/F0, where Fmax corresponds to the maximum response upon stimulation by the compounds. Each compound was tested in concentration 10^−4 M."}, "[3]": {"system": "intracellular calcium in MIN6 pancreatic beta cells", "assay": "Changes in intracellular calcium, MIN6 cells", "type": "cell-based, mouse", "conditions": "10^−4 M, Fluo-8 fluorescence, (Fmax−F0)/F0, one-way ANOVA", "protocol": "as §4, with “Each compound was tested in concentration 10^−4 M.” left out"}, "[4]": {"system": "human primary osteoblasts", "conditions": "8 days, ref [17] Bosetti et al.; cited from earlier work"}, "[5]": {"system": "hBMSC-TERT", "assay": "Osteoblast differentiation of hBMSC-TERT, alkaline phosphatase (ALP) activity assay", "type": "cell-based, human", "conditions": "for ALP activity normalized to cell viability, compared to unstimulated cells: 100 ng/ml, 500 ng/ml and 1 ug/ml, day 7 of OB differentiation, changes not significant; for osteoblast differentiation of hBMSCs: summary in the conclusions", "protocol": "hBMSC-TERT were plated at a density of 20 000 cells/cm^2 (Alizarin Red S staining) and 5 000 cells/well (ALP activity assay) in MEM medium (Gibco), supplemented with 10 % FBS (Gibco) and 1 % P/S (Gibco). One day after seeding, the medium was replaced with OB induction medium, composed of basal medium, supplemented with 10 mM B-glycerophosphate (Sigma-Aldrich), 10 nM dexamethasone (Sigma-Aldrich), 50 μg/mL vitamin C (Sigma-Aldrich), 10 nM vitamin D3 (Sigma-Aldrich) and treated with 100 ng/ml, 500 ng/ml and 1 ug/ml IGF2, IGF1, IGF2, preptin or vehicle (acetic acid) as a control. The medium was changed every other day for 7 days (ALP activity assay) or 10 days (Alizarin Red S staining).\nALP activity and cell viability assay were quantified at Day 7 of OB differentiation, in order to normalize the ALP activity data to the number of viable cells.\nCell viability assay was measured using a Cell Titer-Blue Assay Reagent (Promega) at fluorescence intensity (579Ex/584Em). ALP activity was detected by absorbance at 405 nm, using p-nitrophenyl phosphate (Sigma-Aldrich) as substrate."}, "[6]": {"system": "phosphorylation of Akt in MC3T3-E1 preosteoblasts", "assay": "Stimulation of phosphorylation of Akt, MC3T3-E1 preosteoblasts", "type": "cell-based, mouse", "conditions": "10^-8M, 5 min at RT, Western blot, n = 4, one-way ANOVA", "protocol": "For measuring activation of intracellular signaling pathways, 40 000 of MC3T3-E1, U-2 OS and 3T3-R- cells per well and 100 000 of MIN6 cells per well were seeded in a 24-well plate, two days before stimulation. Cells’ stimulations were done after overnight starvation in a clean culture medium without serum. Cells were stimulated using preptins and their analogs at 10^-8M concentration for 5 min at RT. Cells were washed with PBS and froze immediately. Samples for immunoblots were prepared in Sample lysis buffer (62,5 mM Tris/HCl, 2 % SDS (w/v), 10 % glycerol (v/v), 0,01 % Brom-phenol Blue (w/v), 0,1M DTT, 50mM NaF, 1mM Na3VO4, 0,5 % protease inhibitory complex (v/v), pH 6,8).\nWestern blots were similarly used to study signaling pathways activated by our preptins in all cell lines mentioned above. Proteins were routinely analyzed using immunoblotting. […] The data are expressed as the contribution of target phosphorylation relative to non-stimulated cells (MC3T3-E1, U-2 OS, 3T3-R- and MIN6). Mean ± S.D. (n = 4) values were calculated. The significance of the changes in stimulation of phosphorylation in relation to unstimulated cells was calculated, using the One-way-ANOVA comparing all preptins and their analogs versus control non-stimulated cells."}, "[7]": {"system": "cAMP in U-2 OS osteoblasts", "assay": "Changes in cAMP levels (GloSensor), U-2 OS osteoblasts", "type": "cell-based, human", "conditions": "10^−4 M, GloSensor luminescence, (Lmax−L0)/L0, forskolin positive control", "protocol": "Intracellular cAMP concentration was measured using Promega’s Glosensor on osteoblasts U-2 OS, pancreatic β-cells MIN6 and control cAMP-HEK cells (with stable transfection of F22 plasmid as described above). U-2 OS cells were transfected with F22 plasmid (pGloSensor™-22F, Promega, USA, 6.1 μg of plasmid per 1 million cells) using X-tremeGENE (Sigma-Aldrich, Germany). The ratio of plasmid and transfection reagent was 1:3 (plasmid: X-tremeGENE, m/v). The MIN6 cells were transfected with F22 plasmid in the same concentration as U-2 OS using electroporation by the Invitrogen™ Neon™ Transfection System Instrument (Thermo Fisher Scientific, USA, transfection conditions: 1400 V, 20 ms, 1 pulse). […]\nAfter 24 hours (U-2 OS and cAMP-HEK cells) or 48 hours, respectively (MIN6 cells), cultivation media was changed for assay buffer (HBSS buffer with 20 mM HEPES and 2% (v/v) (cAMP-HEK, U-2 OS cells) or 6% (v/v), respectively (MIN6 cells), GloSensor™ reagent stock solution). The plate was incubated in the dark for 1–2 hours at RT and luminescence was measured until a stable signal was observed (L0). […] The luminescence kinetics were measured by Spark® for 30 min. The result was calculated as (Lmax−L0)/L0, where Lmax corresponds to the maximum response upon stimulation by the compounds. […]"}, "[8]": {"system": "intracellular calcium in U-2 OS cells", "conditions": "previous paper, different method, ref [21]; cited from earlier work", "excerpt": "It is well known that Ca^2+ regulates numerous physiological cellular processes as a second messenger. It plays a vital role in the regulation of cell proliferation, and its increased level is critical for secretagogue-induced insulin release in pancreatic beta cells. […] If preptin or its analogs were proficient insulin secretagogues or had any effect on bone cells, we would e ..."}, "[9]": {"system": "human IGF1R", "assay": "Competitive binding assay for IGF1R with [125I]-Iodotyrosyl-IGF1", "conditions": "fibroblasts with IGF1R (R+39 cells); tracer 125I-IGF1; n ≥ 3", "excerpt": "as §1, §2, §3"}, "[10]": {"system": "IGF2R", "assay": "Competitive binding assay for IGF2R with [125I]-monoiodotyrosyl-Tyr2-IGF2", "set-up": "species or system mouse", "conditions": "R- cells with IGF2R; tracer 125I-IGF2; n ≥ 3", "excerpt": "as §1, §2, §3"}}, "note": "No end group written: not given here.", "data": [{"substance": "DVSTPPTVLPDNFPRYPVGKFFQYDTWKQSTQRL [peptide 1, native human preptin]", "values": [{"measurement": "binding to IR-A", "setting": "[1]", "result": "weak binding"}]}, {"substance": "DVSTSQAVLPDDFPRYPVGZFFQYDTWRQSAGRL [peptide 15, Mouse preptin with Aib (Z) at position 20]", "values": [{"measurement": "changes in intracellular calcium relative to non-stimulated cells", "setting": "[2]", "result": "significant increase in intracellular calcium levels"}]}, {"substance": "DVTTSQAVLPDDFPRY [peptide 17, Mouse preptin fragment]", "values": [{"measurement": "changes in intracellular calcium relative to non-stimulated cells", "setting": "[3]", "result": "completely inhibited calcium secretion"}]}, {"substance": "FPRYPVGKFFQYNTW-NH2 [peptide 18, Mouse preptin fragment, amino acids 13–27, amidated C-end]", "values": [{"measurement": "changes in intracellular calcium relative to non-stimulated cells", "setting": "[2]", "result": "significant increase in intracellular calcium levels"}]}, {"substance": "IGF2: insulin-like growth factor 2, comparator hormone", "values": [{"measurement": "change in ALP activity", "setting": "[4]", "result": "no significant effects"}, {"measurement": "ALP activity normalized to cell viability, compared to unstimulated cells", "setting": "[5]", "result": "signs of higher ALP activity"}, {"measurement": "osteoblast differentiation of hBMSCs", "setting": "[5]", "result": "neither preptin nor IGF2 significantly increased"}]}, {"substance": "PVGKFFQYDTWKQSTQRL [peptide 3, Human preptin fragment]", "values": [{"measurement": "binding to IR-A", "setting": "[1]", "result": "weak binding"}]}, {"substance": "TWKQSTQRL-NH2 [peptide 13, Human preptin fragment]", "values": [{"measurement": "phosphorylation of Akt relative to non-stimulated cells", "setting": "[6]", "result": "Significantly lower phosphorylation of Akt"}, {"measurement": "changes in cAMP levels relative to non-stimulated cells", "setting": "[7]", "result": "significant decrease of cAMP"}]}, {"substance": "WKQSTQRL-NH2 [peptide 12, Human preptin fragment]", "values": [{"measurement": "phosphorylation of Akt relative to non-stimulated cells", "setting": "[6]", "result": "Significantly lower phosphorylation of Akt"}]}, {"substance": "preptin: 34-amino acid peptide derived from pro-IGF2; species or peptide number not stated at the place (DVSTPPTVLPDNFPRYPVGKFFQYDTWKQSTQRL; Preptin; UniProt P01344 93-126, looked up)", "values": [{"measurement": "changes in intracellular calcium levels", "setting": "[8]", "result": "able to induce changes in intracellular calcium levels"}, {"measurement": "change in ALP activity", "setting": "[4]", "result": "no significant effects"}, {"measurement": "displacement of native ligand from IGF1R", "setting": "[9]", "result": "did not displace native ligands even at the highest concentrations used"}, {"measurement": "displacement of native ligand from IGF2R", "setting": "[10]", "result": "did not displace native ligands even at the highest concentrations used"}, {"measurement": "ALP activity normalized to cell viability, compared to unstimulated cells", "setting": "[5]", "result": "signs of higher ALP activity"}, {"measurement": "osteoblast differentiation of hBMSCs", "setting": "[5]", "result": "neither preptin nor IGF2 significantly increased"}]}]}
